Experimental findings from paper PMC13426457, “Cryo-EM structures of apo, agonist- and antagonist-bound heteromeric kainate receptors” (Science Advances, 2026) are described below.

Molecules are shown by their SMILES.

The assay concerns the target T1, GluK2 (Rattus norvegicus, UniProt P42260, A518T/I567V/C576V/C595S).
T1 construct: gene Grik2

T1 sequence (P42260 32-908 A518T/I567V/C576V/C595S): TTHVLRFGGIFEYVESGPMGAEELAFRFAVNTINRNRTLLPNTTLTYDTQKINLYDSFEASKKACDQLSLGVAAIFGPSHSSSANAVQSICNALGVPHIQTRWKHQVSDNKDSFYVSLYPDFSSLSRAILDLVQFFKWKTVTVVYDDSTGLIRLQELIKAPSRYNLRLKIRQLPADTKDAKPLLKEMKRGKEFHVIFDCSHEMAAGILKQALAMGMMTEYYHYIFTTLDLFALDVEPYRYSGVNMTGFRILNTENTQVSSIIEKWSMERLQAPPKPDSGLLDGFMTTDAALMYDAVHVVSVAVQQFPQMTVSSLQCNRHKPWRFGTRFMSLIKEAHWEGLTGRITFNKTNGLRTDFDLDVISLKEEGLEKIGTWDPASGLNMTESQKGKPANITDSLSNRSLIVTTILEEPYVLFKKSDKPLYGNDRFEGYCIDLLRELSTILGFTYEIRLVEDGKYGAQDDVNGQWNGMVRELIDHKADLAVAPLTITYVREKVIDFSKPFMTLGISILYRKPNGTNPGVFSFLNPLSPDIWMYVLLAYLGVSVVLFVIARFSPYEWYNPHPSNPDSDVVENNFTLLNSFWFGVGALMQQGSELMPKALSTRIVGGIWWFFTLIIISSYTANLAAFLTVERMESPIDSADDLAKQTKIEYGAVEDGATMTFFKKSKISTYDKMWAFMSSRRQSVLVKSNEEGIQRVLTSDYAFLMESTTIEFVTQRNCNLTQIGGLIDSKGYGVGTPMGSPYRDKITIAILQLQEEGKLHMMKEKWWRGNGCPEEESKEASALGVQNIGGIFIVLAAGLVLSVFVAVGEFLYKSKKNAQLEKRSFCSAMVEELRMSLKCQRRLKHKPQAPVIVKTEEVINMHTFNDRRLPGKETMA
T1 sequence (Q63273 with tags, fused parts or gaps T501A/C559V/C578S/C619I/C813A partner): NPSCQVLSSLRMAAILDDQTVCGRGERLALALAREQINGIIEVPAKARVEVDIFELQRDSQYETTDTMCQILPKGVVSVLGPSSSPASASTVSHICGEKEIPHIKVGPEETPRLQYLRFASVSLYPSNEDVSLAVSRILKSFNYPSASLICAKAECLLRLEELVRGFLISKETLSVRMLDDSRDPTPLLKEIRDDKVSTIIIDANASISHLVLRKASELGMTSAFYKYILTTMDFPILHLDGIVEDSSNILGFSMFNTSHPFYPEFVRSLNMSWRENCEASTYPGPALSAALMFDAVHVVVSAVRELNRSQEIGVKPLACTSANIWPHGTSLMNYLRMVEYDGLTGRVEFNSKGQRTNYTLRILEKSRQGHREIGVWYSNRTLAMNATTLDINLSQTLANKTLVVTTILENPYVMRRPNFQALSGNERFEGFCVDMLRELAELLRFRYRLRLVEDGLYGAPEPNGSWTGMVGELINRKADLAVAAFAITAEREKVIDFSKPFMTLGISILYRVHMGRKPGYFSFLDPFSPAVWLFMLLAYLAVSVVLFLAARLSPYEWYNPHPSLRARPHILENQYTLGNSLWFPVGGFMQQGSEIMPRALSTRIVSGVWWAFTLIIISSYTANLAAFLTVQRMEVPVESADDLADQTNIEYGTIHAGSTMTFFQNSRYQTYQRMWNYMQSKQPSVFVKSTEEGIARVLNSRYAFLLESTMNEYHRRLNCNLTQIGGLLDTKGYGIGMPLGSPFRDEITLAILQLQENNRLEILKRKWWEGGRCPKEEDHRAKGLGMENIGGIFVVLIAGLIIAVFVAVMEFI

`Cc1cn(C[C@H](N)C(=O)O)c(=O)n(Cc2ccsc2C(=O)O)c1=O` [UBP310, (S)-1-(2-amino-2-carboxyethyl)-3-(2-carboxythiophene-3-yl-methyl)-5-methylpyrimidine-2,4-dione]: the “% current reduction at 0.5 mM” value is 56.2 ± 21.0 % current reduction at 0.5 mM.
